{"source": "ChEMBL document CHEMBL1201862", "about": "“PubChem BioAssay data set” (2004)", "key": {"[1]": {"test": "Vero cell cytotoxicity, cytotoxicity control for M. tuberculosis inhibitor project, purified and synthesized samples, set 3 (AID 504684)", "assay_type": "functional", "settings": "[…]"}, "[2]": {"molecular_target": "Ras and Rab interactor 1/Tyrosine-protein kinase ABL1 (Homo sapiens, UniProt P00519+Q13671)", "sequence (P00519 whole entry)": "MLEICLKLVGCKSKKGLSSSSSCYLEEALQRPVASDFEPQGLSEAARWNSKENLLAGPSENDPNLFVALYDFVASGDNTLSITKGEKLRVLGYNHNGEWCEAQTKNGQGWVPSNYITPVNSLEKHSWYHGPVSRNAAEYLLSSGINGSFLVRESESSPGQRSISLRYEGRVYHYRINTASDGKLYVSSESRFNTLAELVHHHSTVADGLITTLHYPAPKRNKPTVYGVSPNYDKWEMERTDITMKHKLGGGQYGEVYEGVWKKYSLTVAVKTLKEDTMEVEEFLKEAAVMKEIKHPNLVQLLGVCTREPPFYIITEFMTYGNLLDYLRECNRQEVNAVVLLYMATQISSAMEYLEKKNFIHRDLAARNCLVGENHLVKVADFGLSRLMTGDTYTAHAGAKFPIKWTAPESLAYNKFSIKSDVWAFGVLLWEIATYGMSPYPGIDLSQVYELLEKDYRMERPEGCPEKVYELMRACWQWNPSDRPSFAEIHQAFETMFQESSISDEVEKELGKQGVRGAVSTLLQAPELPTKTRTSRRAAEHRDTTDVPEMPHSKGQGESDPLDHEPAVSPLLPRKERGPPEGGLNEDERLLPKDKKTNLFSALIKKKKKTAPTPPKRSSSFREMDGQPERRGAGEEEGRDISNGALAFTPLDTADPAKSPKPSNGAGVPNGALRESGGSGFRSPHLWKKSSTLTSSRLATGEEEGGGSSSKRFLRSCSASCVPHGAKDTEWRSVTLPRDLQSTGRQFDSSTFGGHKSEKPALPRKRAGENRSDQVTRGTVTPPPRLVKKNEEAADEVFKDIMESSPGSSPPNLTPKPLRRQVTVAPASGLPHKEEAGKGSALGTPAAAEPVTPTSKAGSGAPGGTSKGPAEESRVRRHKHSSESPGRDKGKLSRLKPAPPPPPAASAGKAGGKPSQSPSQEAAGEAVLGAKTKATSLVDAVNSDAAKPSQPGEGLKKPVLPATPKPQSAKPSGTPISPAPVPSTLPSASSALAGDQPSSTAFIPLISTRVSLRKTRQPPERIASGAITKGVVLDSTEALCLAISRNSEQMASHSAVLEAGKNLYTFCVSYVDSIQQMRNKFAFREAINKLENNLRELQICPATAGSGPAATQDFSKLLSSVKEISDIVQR", "sequence (Q13671 whole entry)": "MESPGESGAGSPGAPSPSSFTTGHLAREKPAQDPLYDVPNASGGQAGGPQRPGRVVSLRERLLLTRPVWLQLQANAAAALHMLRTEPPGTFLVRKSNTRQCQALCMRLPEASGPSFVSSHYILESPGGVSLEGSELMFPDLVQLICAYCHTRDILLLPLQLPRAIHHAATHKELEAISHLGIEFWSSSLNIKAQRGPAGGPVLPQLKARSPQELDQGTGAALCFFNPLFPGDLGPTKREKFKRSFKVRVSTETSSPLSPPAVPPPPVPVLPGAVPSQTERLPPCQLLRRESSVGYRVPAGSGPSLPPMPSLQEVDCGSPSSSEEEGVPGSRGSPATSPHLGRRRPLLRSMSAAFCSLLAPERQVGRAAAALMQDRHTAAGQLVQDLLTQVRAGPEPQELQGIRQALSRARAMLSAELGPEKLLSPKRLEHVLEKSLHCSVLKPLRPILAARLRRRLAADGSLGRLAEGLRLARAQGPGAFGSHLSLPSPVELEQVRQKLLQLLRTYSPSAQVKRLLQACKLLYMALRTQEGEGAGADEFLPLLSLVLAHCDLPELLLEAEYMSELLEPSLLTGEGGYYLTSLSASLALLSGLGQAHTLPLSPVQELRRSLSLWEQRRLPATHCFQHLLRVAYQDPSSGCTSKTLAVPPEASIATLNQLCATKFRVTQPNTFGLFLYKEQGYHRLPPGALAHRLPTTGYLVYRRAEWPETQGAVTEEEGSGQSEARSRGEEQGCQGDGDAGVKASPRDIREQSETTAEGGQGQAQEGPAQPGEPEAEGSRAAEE", "assay_type": "functional"}, "[3]": {"molecular_target": "T1, Microphthalmia-associated transcription factor (Homo sapiens, UniProt O75030)", "T1 sequence (O75030 whole entry)": "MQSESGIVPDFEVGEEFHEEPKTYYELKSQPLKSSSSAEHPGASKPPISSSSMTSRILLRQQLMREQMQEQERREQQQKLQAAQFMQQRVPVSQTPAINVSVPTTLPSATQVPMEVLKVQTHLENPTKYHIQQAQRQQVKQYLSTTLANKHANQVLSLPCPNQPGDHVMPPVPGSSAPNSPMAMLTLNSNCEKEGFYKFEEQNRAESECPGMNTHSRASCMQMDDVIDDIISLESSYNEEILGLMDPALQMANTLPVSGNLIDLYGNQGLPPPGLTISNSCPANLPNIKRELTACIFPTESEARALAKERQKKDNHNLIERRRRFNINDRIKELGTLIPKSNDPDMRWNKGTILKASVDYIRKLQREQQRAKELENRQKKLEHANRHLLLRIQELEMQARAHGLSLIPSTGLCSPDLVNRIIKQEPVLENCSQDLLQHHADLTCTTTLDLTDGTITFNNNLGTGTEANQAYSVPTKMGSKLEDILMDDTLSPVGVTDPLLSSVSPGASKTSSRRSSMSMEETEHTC", "test": "TRPM1 promoter luciferase signal decrease, dose response, MITF inhibitor project, cell-based, SK-MEL-5, cherry-picked, set 3 (AID 493073)", "assay_type": "functional"}, "[4]": {"molecular_target": "Nonstructural protein 1 (Influenza A virus, UniProt Q194T2)", "sequence (Q194T2 whole entry)": "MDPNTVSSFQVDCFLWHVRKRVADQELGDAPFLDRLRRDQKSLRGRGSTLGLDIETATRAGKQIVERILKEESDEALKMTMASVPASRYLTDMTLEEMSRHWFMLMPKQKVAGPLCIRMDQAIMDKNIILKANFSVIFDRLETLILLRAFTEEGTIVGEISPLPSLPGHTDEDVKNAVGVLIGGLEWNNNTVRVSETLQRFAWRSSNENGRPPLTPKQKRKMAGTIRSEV", "assay_type": "functional, Influenza A virus (A/California/07/2009(H1N1))"}, "[5]": {"test": "MDA-MB-231 cell growth inhibition, dose response, cytotoxicity control for RAD54 inhibitor project, CellTiter-Glo luminescence, cherry-pick (AID 651692)", "assay_type": "functional, cell-based"}, "[6]": {"molecular_target": "T2, DNA repair and recombination protein RAD54-like (Homo sapiens, UniProt Q92698)", "T2 sequence (Q92698 whole entry)": "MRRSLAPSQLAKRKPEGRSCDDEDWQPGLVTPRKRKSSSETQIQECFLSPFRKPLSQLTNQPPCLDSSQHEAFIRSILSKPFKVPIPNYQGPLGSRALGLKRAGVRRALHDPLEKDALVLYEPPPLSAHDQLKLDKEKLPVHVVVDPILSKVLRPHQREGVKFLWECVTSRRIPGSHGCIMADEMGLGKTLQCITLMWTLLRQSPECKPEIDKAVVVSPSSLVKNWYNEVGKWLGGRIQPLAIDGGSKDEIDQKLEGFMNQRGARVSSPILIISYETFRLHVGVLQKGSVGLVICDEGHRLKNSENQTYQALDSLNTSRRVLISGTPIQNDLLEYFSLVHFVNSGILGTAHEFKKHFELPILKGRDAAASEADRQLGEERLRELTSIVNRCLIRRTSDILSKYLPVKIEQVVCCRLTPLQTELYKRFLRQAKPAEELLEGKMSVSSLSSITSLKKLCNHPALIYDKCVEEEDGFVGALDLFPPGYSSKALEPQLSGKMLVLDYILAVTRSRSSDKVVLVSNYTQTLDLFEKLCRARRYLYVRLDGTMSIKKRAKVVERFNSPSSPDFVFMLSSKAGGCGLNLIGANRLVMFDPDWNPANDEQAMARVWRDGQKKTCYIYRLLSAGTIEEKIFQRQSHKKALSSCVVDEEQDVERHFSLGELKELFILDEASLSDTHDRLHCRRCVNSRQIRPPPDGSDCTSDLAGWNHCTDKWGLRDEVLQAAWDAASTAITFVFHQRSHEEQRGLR", "test": "inhibitors of human RAD54 branch migration, confirmation, biochemical, fluorescence, cherry-picked samples, dose series (AID 651657)", "assay_type": "functional"}, "[7]": {"molecular_target": "T3, DNA repair protein RAD52 homolog (Homo sapiens, UniProt P43351)", "T3 sequence (P43351 whole entry)": "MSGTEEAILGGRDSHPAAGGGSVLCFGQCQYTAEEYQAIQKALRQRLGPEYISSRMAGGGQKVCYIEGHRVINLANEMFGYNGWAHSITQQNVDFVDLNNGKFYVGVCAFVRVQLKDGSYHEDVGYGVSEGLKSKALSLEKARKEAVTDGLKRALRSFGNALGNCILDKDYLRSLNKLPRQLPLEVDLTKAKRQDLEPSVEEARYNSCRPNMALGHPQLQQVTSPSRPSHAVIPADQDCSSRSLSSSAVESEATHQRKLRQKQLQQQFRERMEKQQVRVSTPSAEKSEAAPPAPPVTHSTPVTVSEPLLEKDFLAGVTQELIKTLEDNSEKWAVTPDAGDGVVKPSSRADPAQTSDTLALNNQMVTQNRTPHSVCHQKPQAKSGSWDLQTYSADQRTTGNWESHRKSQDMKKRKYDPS", "assay_type": "functional, biochemical"}, "[8]": {"test": "A Cell Based Secondary Assay To Explore Cytotoxicity of Compounds that Sensitize Mycobacterium Tuberculosis to Beta-Lactam Antibiotics.", "assay_type": "functional"}, "[9]": {"molecular_target": "ADP-ribosylation factor GTPase-activating protein 1 (Rattus norvegicus, UniProt Q62848)", "sequence (Q62848 whole entry)": "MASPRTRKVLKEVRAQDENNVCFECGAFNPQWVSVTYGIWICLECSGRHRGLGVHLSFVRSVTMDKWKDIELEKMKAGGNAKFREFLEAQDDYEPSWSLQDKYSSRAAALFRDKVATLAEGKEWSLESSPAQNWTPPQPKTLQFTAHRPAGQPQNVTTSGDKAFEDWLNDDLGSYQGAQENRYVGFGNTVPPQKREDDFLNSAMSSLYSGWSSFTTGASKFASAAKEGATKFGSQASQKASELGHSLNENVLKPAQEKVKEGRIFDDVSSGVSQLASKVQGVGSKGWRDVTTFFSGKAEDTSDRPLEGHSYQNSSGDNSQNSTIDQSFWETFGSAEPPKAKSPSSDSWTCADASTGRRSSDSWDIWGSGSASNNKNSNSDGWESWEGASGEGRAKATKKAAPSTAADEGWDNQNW", "test": "Fluorescence polarization-based biochemical high throughput dose response screening assay to identify inhibitors of ADP-ribosylation factor GTPase activating protein 1 (ARFGAP1).", "assay_type": "functional"}, "[10]": {"molecular_target": "Cytochrome P450 2C9 (Homo sapiens, UniProt P11712)"}, "[11]": {"tested_on": "HEK293", "test": "optical interference in Abeta FP readout, dose response, artefact control for IDE activator project, biochemical, fluorescence polarization (AID 588442)", "assay_type": "functional, cell-based", "settings": "Homo sapiens"}, "[12]": {"molecular_target": "Cytochrome P450 3A4 (Homo sapiens, UniProt P08684)"}, "[13]": {"tested_on": "HEK293", "test": "HEK cell cytotoxicity by LDH release, dose response, cytotoxicity control for IDE activator project, fluorescence, HEK cells (AID 588440);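 further: cytotoxicity by LDH release measuring loss of membrane integrity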", "assay_type": "functional, cell-based", "settings": "Homo sapiens"}, "[14]": {"molecular_target": "T4, Insulin-degrading enzyme (Homo sapiens, UniProt P14735)", "T4 sequence (P14735 whole entry)": "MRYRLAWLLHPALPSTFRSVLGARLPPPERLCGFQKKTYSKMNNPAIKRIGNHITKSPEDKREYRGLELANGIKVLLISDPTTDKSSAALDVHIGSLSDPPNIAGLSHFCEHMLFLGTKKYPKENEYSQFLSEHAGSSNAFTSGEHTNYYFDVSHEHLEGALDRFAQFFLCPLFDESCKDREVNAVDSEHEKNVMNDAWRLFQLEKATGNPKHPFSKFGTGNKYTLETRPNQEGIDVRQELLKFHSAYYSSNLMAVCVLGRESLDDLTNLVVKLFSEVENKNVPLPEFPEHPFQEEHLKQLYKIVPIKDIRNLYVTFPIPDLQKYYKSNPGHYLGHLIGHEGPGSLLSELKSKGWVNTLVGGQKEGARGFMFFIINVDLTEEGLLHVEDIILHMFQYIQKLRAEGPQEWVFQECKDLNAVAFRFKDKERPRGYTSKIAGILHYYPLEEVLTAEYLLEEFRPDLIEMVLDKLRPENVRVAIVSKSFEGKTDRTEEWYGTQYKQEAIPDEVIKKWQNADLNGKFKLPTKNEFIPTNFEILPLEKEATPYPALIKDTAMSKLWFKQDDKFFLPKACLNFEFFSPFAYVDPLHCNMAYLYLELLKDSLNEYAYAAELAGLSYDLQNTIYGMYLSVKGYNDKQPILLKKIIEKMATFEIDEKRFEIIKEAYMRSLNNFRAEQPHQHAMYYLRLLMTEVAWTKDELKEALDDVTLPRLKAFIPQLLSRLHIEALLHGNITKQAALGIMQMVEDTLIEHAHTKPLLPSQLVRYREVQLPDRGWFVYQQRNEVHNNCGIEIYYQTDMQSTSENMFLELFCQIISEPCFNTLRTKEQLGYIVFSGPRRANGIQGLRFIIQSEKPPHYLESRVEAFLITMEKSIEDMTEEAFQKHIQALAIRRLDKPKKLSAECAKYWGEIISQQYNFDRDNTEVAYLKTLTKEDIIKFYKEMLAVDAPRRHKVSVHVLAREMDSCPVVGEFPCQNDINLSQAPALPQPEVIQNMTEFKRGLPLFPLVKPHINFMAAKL", "test": "activators of endogenous IDE in HEK cells, dose response, cell-based, fluorescence polarization (AID 588439)", "assay_type": "functional"}, "[15]": {"molecular_target": "T4, Insulin-degrading enzyme", "test": "activators of recombinant IDE enzyme, dose response, counter-screen for IDE activator project, biochemical, fluorescence polarization (AID 588681)"}, "[16]": {"molecular_target": "Cytochrome P450 2D6 (Homo sapiens, UniProt P10635)", "sequence (P10635 whole entry)": "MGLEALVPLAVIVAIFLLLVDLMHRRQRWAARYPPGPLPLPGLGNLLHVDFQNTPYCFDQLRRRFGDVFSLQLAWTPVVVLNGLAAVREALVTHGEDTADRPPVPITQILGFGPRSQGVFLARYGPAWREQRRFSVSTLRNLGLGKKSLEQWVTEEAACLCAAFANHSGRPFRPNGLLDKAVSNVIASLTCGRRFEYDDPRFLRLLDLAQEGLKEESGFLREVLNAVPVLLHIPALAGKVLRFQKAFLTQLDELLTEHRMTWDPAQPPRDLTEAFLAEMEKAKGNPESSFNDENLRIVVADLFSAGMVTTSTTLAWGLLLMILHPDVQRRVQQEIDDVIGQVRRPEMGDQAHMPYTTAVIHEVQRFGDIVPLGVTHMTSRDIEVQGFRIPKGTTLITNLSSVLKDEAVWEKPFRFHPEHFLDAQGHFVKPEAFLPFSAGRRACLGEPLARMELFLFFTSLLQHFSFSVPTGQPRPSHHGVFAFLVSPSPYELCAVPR"}, "[17]": {"molecular_target": "Low molecular weight phosphotyrosine protein phosphatase (Homo sapiens, UniProt P24666)", "sequence (P24666 whole entry)": "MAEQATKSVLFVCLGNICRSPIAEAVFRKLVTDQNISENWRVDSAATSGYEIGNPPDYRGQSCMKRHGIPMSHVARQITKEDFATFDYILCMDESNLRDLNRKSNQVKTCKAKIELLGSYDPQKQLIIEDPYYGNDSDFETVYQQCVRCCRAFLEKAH", "assay_type": "functional", "settings": "read-out: IC50_Mean"}, "[18]": {"molecular_target": "T5, ATP-dependent translocase ABCB1 (Homo sapiens, UniProt P08183)", "T5 sequence (P08183 whole entry)": "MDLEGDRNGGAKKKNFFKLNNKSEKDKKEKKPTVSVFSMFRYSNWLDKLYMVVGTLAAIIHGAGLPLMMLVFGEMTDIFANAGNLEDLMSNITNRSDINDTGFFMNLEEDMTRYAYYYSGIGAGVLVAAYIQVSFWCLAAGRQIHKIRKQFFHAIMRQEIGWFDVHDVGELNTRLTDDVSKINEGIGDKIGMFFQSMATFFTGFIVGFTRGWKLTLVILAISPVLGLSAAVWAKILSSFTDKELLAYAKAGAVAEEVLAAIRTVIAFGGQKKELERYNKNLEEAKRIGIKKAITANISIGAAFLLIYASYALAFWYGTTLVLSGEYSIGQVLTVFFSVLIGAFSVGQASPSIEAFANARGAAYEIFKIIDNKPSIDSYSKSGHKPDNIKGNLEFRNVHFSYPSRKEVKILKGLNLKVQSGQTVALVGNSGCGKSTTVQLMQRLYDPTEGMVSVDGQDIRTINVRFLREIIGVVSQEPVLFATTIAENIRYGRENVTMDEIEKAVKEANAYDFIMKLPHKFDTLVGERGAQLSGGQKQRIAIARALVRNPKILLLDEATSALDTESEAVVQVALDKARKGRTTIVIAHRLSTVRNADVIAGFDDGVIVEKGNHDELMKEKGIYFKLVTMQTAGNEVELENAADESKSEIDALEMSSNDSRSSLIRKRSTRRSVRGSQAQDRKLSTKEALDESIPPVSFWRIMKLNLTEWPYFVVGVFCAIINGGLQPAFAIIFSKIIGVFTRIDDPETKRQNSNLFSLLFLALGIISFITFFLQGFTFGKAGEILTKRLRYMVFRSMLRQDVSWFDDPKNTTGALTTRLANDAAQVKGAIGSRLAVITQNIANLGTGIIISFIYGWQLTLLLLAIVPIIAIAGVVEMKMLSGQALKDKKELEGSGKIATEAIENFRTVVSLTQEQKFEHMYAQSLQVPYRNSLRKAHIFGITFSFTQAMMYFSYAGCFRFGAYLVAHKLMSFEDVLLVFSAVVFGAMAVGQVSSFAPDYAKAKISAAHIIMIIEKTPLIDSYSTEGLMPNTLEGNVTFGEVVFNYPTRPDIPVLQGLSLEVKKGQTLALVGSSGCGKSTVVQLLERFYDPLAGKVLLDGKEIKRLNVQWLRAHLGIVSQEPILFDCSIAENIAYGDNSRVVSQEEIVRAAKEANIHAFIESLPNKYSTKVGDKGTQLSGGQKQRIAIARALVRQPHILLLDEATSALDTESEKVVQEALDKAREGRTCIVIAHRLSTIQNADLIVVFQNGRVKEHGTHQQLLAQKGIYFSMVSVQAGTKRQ", "test": "ABCB1 efflux inhibitor potency, dose response, Jurkat-DNR cells, JC-1, flow cytometry, set 2 (AID 504569);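 further: potency of pump inhibitors that raise cellular JC-1 green fluorescence up to the nicardipine level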", "assay_type": "functional", "settings": "read-out: EC50_MICROM_"}, "[19]": {"molecular_target": "T5, ATP-dependent translocase ABCB1", "test": "ABCG2 efflux pump inhibitor potency, dose response, Ig-MXP3 cells, JC-1, flow cytometry, set 2 (AID 504566);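 further: flow cytometry median green fluorescence of retained JC-1 dye; potency of efflux pump inhibition measured as rising substrate retention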", "assay_type": "functional", "settings": "read-out: EC50_MICROM_"}, "[20]": {"test": "Luminescence Cell-Based Dose Confirmation HTS to Identify Inhibitors of Platelet Dense Granule Release. [Related pubchem assays: 1663 (Primary HTS), 1678 (Summary of Project)]", "assay_type": "functional"}, "[21]": {"molecular_target": "Luciferin 4-monooxygenase (Photinus pyralis, UniProt P08659)", "sequence (P08659 whole entry)": "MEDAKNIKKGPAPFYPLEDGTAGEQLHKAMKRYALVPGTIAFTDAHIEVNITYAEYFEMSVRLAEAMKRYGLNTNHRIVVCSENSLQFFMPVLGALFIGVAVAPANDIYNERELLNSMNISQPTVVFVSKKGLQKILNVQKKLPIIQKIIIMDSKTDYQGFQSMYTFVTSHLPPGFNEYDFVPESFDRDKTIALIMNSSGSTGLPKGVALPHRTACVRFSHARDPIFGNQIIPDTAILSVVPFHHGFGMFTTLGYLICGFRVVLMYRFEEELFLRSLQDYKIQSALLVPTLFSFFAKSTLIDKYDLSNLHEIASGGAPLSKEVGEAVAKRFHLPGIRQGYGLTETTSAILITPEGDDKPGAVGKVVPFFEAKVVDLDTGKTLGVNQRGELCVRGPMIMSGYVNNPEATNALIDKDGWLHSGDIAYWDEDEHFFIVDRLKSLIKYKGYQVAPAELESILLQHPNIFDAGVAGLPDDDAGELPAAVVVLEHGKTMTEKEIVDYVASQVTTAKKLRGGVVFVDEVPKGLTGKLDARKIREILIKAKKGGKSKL", "test": "firefly luciferase enzyme inhibitors, dose response, biochemical, luminescence (AID 1891)"}, "[22]": {"test": "ARNT/TACC3 interaction disruptors, potency, confirmation, biochemical, AlphaScreen, cherry-picked samples (AID 651703);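 further: His-tagged ARNT PAS-B domain paired with GST-TACC3 E629A dimer coactivator fragment; potency of inhibitors that break up the complex and lower AlphaScreen signal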", "assay_type": "functional, Homo sapiens"}}, "note": "Active and inactive are the calls of the source.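 Wherever IC50 Mean is given: Dose-response confirmation assay measuring inhibition of LMPTP enzyme activity by fluorescence intensity read-out.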"}
{"smiles": "O=c1[nH]c(S)nc2ccccc12", "values": [{"measurement": "CC50", "setting": "[1]", "value": "> 100 µM (active)"}]}
{"smiles": "CCOC(=O)c1ccc(NC(=O)COc2ccccc2CNC2CCCC2)cc1", "values": [{"measurement": "IC50", "setting": "[2]", "value": "12.2 µM (inactive)"}]}
{"smiles": "CCN1CCCC1CNC(=O)c1ccc2c(c1)NC(=O)/C(=C\\c1ccc(OC)c(OC)c1)S2", "note": "(stereo unspecified)", "values": [{"measurement": "AC50", "setting": "[3]", "value": "13.8 µM (active)"}, {"measurement": "IC50", "setting": "[4]", "value": "81.9 µM (active)"}, {"measurement": "AC50", "setting": "[5]", "value": "36.4 µM (active)"}, {"measurement": "AC50", "setting": "[6]", "value": "12.6 µM (active)"}, {"measurement": "AC50", "setting": "[7]", "value": "3.24 µM (active)"}]}
{"smiles": "Cc1cccc(NC(=O)Cn2cnc3c(oc4ccccc43)c2=O)c1C", "values": [{"measurement": "CC50", "setting": "[8]", "value": "> 40 µM (active)"}, {"measurement": "IC50", "setting": "[9]", "value": "28.7 µM (inactive)"}]}
{"smiles": "CCCCn1nc2cc(C(=O)NCCCCc3ccccc3)ccc2c1OCC", "values": [{"measurement": "AC50", "setting": "[10]", "value": "31.6 µM (inconclusive)"}, {"measurement": "EC50", "setting": "[11]", "value": "> 54.7 µM (inactive)"}, {"measurement": "AC50", "setting": "[12]", "value": "6.31 µM (inconclusive)"}, {"measurement": "IC50", "setting": "[13]", "value": "> 89.2 µM (inactive)"}, {"measurement": "EC50", "setting": "[14]", "value": "22.8 µM (inactive)"}, {"measurement": "EC50", "setting": "[15]", "value": "> 54.7 µM (inactive)"}, {"measurement": "AC50", "setting": "[16]", "value": "3.98 µM (inconclusive)"}]}
{"smiles": "O=C(COc1ccccc1)Nc1sc2c(c1C(=O)NCc1cccnc1)CCCC2", "values": [{"measurement": "IC50", "setting": "[17]", "value": "21.3 µM (inactive)"}]}
{"smiles": "Cc1cccc(C(=O)NCCN2CCOCC2)c1[N+](=O)[O-]", "values": [{"measurement": "EC50", "setting": "[11]", "value": "> 54.6 µM (inactive)"}, {"measurement": "IC50", "setting": "[13]", "value": "> 89.1 µM (inactive)"}, {"measurement": "EC50", "setting": "[14]", "value": "> 54.6 µM (inactive)"}, {"measurement": "EC50", "setting": "[15]", "value": "> 54.6 µM (inactive)"}]}
{"smiles": "O=C(c1ccccc1)N1CCN(c2cc(-c3ccccc3)nc3cc(-c4ccc(F)cc4)nn23)CC1", "values": [{"measurement": "EC50", "setting": "[18]", "value": "5.63 µM (active)"}, {"measurement": "EC50", "setting": "[19]", "value": "2.35 µM (active)"}]}
{"smiles": "CCOc1ccc(Nc2cc3n(c(=O)n2)CCc2cc(OC)c(OC)cc2-3)cc1", "values": [{"measurement": "EC50", "setting": "[20]", "value": "12.5 µM (active)"}, {"measurement": "EC50", "setting": "[21]", "value": "> 112 µM (not active)"}, {"measurement": "AC50", "setting": "[22]", "value": "102 µM (active)"}]}
